Measured values reported in ChEMBL document CHEMBL1201862, “PubChem BioAssay data set” (2004).
Several values for one entry are separate records, joined by “and”; a condition that tells them apart may be missing. Identical values can stand only once.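 How tested: cells in 96-well plates exposed to compound for 48 hours at five concentrations. At the GI50, growth is halved.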 Activity calls are given as the source filed them. Rule as the data show it: active = GI50 up to about 1.1 µM and inactive = higher.

Tests used:
Test in all cases: growth of human tumour cells (NCI), 48 h
[1] = test system: ACHN
[2] = test system: COLO 205
[3] = test system: HT-29
[4] = test system: Hs-578T
[5] = test system: KM12
[6] = test system: M14
[7] = test system: MCF7
[8] = test system: Malme-3M
[9] = test system: NCI-H522
[10] = test system: OVCAR-5
[11] = test system: SK-MEL-2
[12] = test system: SN12C
[13] = test system: SNB-75
[14] = test system: SR
[15] = test system: SW-620
[16] = test system: U-251
[17] = test system: HCC 2998
[18] = test system: NCI-H226
[19] = test system: CAKI-1
[20] = test system: T47D

Measured: GI50

C1=N\CCOCC/N=C/c2ccccc2OCc2cccc(n2)COc2ccccc2/1
active: [14] 0.977 µM
inactive: [1] 9.23 µM | [2] 13 µM | [3] 5.22 µM | [4] 6.82 µM | [5] 7.85 µM | [6] 8.87 µM | [7] 4.32 µM | [8] 4.53 µM | [9] 20.3 µM | [10] 5.26 µM | [11] 8.63 µM | [12] 5.96 µM | [13] 2.83 µM | [15] 4.79 µM | [16] 6.04 µM

Cc1nc(Cl)nc(Cl)c1C
inactive: [1] > 100 µM | [17] > 100 µM | [3] > 100 µM | [4] > 100 µM | [5] > 100 µM | [6] > 100 µM | [7] > 100 µM | [8] > 100 µM | [18] > 100 µM | [9] > 100 µM | [10] > 100 µM | [11] > 100 µM | [12] > 100 µM | [13] > 100 µM | [14] > 100 µM | [15] > 100 µM | [16] > 100 µM

CSC1=N/C(=C\c2cccs2)C(=O)N1CN1CCCCC1
inactive: [1] 28 µM | [2] 70.6 µM | [3] 25.1 µM | [4] 18.3 µM | [5] 50.2 µM | [6] > 100 µM | [7] 45.2 µM | [8] 28.3 µM | [18] 57.8 µM | [10] > 100 µM | [11] > 100 µM | [12] > 100 µM | [13] 31.9 µM | [14] 32.2 µM | [15] 36.9 µM | [16] 79.6 µM

Nc1ccc(COC(O)CN2CCCCC2)cc1[N+](=O)[O-] (stereo not drawn)
inactive: [1] > 100 µM | [19] > 100 µM | [2] > 100 µM | [17] > 100 µM | [3] > 100 µM | [5] > 100 µM | [6] > 100 µM | [7] > 100 µM | [8] > 100 µM | [18] > 100 µM | [9] > 100 µM | [10] > 100 µM | [11] > 100 µM | [12] > 100 µM | [13] 70.5 µM | [14] > 100 µM | [15] > 100 µM | [20] > 100 µM | [16] > 100 µM

Nc1ccc(S(=O)(=O)NCCS(=O)(=O)O)cc1
inactive: [1] > 100 µM | [19] > 100 µM | [3] > 100 µM | [4] > 100 µM | [5] > 100 µM | [6] > 100 µM | [8] > 100 µM | [18] > 100 µM | [9] > 100 µM | [10] > 100 µM | [11] > 100 µM | [12] > 100 µM | [13] > 100 µM | [14] > 100 µM | [15] > 100 µM | [16] > 100 µM

COc1cc(C(=O)n2c3ccc(Br)cc3c3nc4ccccc4nc32)cc(OC)c1OC
inactive: [1] 37.9 µM | [19] > 100 µM | [2] > 100 µM | [17] > 100 µM | [3] > 100 µM | [5] > 100 µM | [6] > 100 µM | [7] > 100 µM | [8] > 100 µM | [18] > 100 µM | [9] 36.6 µM | [10] > 100 µM | [11] 62.8 µM | [12] > 100 µM | [13] 26.2 µM | [14] > 100 µM | [15] > 100 µM | [20] > 100 µM | [16] > 100 µM

Clc1ccc(OCc2nnc3sc(-c4ccc(-c5ccc(Cl)cc5Cl)o4)nn23)cc1
inactive: [1] > 100 µM | [19] > 100 µM | [2] > 100 µM | [3] > 100 µM | [4] > 100 µM | [5] > 100 µM | [6] > 100 µM | [8] > 100 µM | [18] > 100 µM | [9] > 100 µM | [10] > 100 µM | [11] 50.6 µM | [12] > 100 µM | [13] 7.85 µM | [14] > 100 µM | [15] > 100 µM | [20] > 100 µM | [16] 84.3 µM

C[C@@]1(Br)C[C@@](C)(Cl)[C@@H](Br)CC1/C=C/Cl (stereo partly drawn)
inactive: [1] 18.1 µM | [2] 15.6 µM | [17] 31.6 µM | [3] 16.1 µM | [4] 16.7 µM | [5] 16.1 µM | [6] 16.6 µM | [7] 16.6 µM | [18] 10.8 µM | [10] 15.1 µM | [11] 16.7 µM | [12] 15 µM | [13] 12.8 µM | [14] 14.1 µM | [15] 26.9 µM | [16] 19.3 µM
active: [8] < 0.01 µM

O=P(O)(CN1CCN(CP(=O)(O)c2ccccc2)CCN(CP(=O)(O)c2ccccc2)CC1)c1ccccc1
inactive: [1] > 100 µM | [19] 45.8 µM | [2] 69.3 µM | [17] 78.2 µM | [3] 26.1 µM | [5] 47.9 µM | [7] 28.1 µM | [8] 56.2 µM | [18] > 100 µM | [10] > 100 µM | [13] > 100 µM | [15] 45.6 µM | [20] > 100 µM | [16] 47.8 µM

COP1(=S)OCC2CCC[C@@H]2O1 (stereo partly drawn)
inactive: [1] > 100 µM | [19] > 100 µM | [2] > 100 µM | [17] > 100 µM | [3] > 100 µM | [5] > 100 µM | [6] > 100 µM | [8] > 100 µM | [18] > 100 µM | [9] > 100 µM | [10] > 100 µM | [11] > 100 µM | [12] > 100 µM | [13] > 100 µM | [14] > 100 µM | [15] > 100 µM | [20] > 100 µM | [16] > 100 µM

CCOP(=O)(OCC)C(C)(CC)NC(=O)C(C(F)(F)F)C(F)(F)F (stereo not drawn)
inactive: [1] > 100 µM | [19] > 100 µM | [2] > 100 µM | [17] > 100 µM | [3] > 100 µM | [4] > 100 µM | [5] 49.5 µM and 58.2 µM | [6] > 100 µM | [7] > 31.6 µM and 29.7 µM | [8] > 100 µM | [18] > 100 µM | [10] > 100 µM | [11] > 100 µM | [12] > 100 µM | [14] 63.4 µM and 33.8 µM | [15] > 100 µM and 92 µM | [16] > 100 µM

CNC(=O)OC1/C(C)=C\C(C)C(O)C(OC)CC(C)CC2=C(OC)C(=O)C=C(C2=O)N(C)C(=O)/C(C)=C/C=C\C1OC (stereo not drawn)
active: [2] 0.424 µM | [9] 0.879 µM | [15] 0.35 µM
inactive: [1] 8.24 µM | [19] 7.4 µM | [17] 4.39 µM | [3] 1.19 µM | [4] 4.03 µM | [5] 10.4 µM | [6] 3.08 µM | [8] 5.69 µM | [18] 19.5 µM | [10] 13.1 µM | [11] 8.85 µM | [12] 3.62 µM | [13] 14.2 µM | [20] 1.57 µM | [16] 15.2 µM

N#CC(N)(C(=O)C(=O)NCCCNC(=O)C(=O)C(N)(C#N)c1ccc(Cl)cc1)c1ccc(Cl)cc1 (stereo not drawn)
inactive: [1] > 100 µM | [19] > 100 µM | [2] > 100 µM | [17] > 100 µM | [3] > 100 µM | [5] > 100 µM | [6] > 100 µM | [8] > 100 µM | [18] > 100 µM | [9] > 100 µM | [10] > 100 µM | [11] > 100 µM | [12] > 100 µM | [13] > 100 µM | [14] > 100 µM | [15] > 100 µM | [16] > 100 µM

CC(C)C(NCc1c2ccccc2[n+](C)c2ccccc12)C(=O)O (stereo not drawn)
active: [14] 0.748 µM
inactive: [1] 3.53 µM | [19] 3.48 µM | [2] 2.34 µM | [17] 14.8 µM | [3] 2.89 µM | [5] 4.91 µM | [6] 4.49 µM | [8] 6.62 µM | [18] 14.7 µM | [9] 2.15 µM | [10] 18.9 µM | [11] 6.04 µM | [12] 5.58 µM | [13] 1.5 µM | [15] 3.7 µM | [16] 7.28 µM

C=C1CC[C@@H](C)[C@](C)(CCc2ccoc2)C/C=C\C=C/1C(=O)O
inactive: [1] 53.2 µM | [19] 31.6 µM | [2] 21 µM | [3] 36.7 µM | [4] 71 µM | [5] 33.1 µM | [6] 32.4 µM | [7] 33.3 µM | [8] 33.4 µM | [18] 35.6 µM | [10] > 100 µM | [11] 19.1 µM | [12] 50.5 µM | [13] 80 µM | [14] 23 µM | [15] 32.8 µM | [16] 34.3 µM

NC1=NC(=O)C2(NN1)c1ccccc1-c1ccccc12
inactive: [1] 6.17 µM | [19] > 10 µM | [2] > 10 µM | [17] > 10 µM | [5] > 10 µM | [6] > 10 µM | [7] 3.26 µM | [8] > 10 µM | [18] > 10 µM | [10] > 10 µM | [11] > 10 µM | [12] > 10 µM | [13] > 10 µM | [14] > 10 µM | [15] > 10 µM | [20] 2.42 µM | [16] 7.62 µM
